Tested on: B16F10 melanoma
Experiment: B16F10 metastasis model (lung metastasis of B16F10 melanoma)
Format: in vivo, C57/b16J mice
Conditions: 5 mg/kg subcutaneously once daily; after 14 days of treatment; 0.1×10^6 B16F10 cells i.v.; versus vehicle control
Experimental: In vivo Efficacy of Compound 1 on Metastasis of B16F10 Melanoma
C57/b16J female mice (Aurigene, Bangalore, India) aged 6 to 8 weeks were used for the experiment. Animals were acclimatized for a week in the experimental room before conducting the experiment.
Effect of Compound 001 in B16F10 Metastasis Model
In the case of metastasis model, 0.1×10^6 B16F10 cells were injected to C57/b16J mice through i.v. Compound 001 dissolved in PBS, pH 7.4 was dosed subcutaneously at 5 mg/kg once daily. Vehicle control group of mice received only saline. Each group consisted of ten animals. Body weight and clinical signs were recorded daily. After 14 days of treatment, lung metastasis was quantitated by counting number of nodules under dissection microscope.

Substance: Compound 001: SEQ ID NO: 3 (SNTSEFS)
- reduction in metastasis (lung metastasis quantitated by counting number of nodules): 64%
